Measured values from the supplement of paper PMC4862054.

Assays:
Conditions in all cases: incubation time: 72 h
[1] = test system: MDA-MB-453; assay: normalised viability (% of control), CellTiter-Blue; higher = more viable cells (about 100 = DMSO control)
How it was run: (§1)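 After 72 h on compound-loaded 384-well plates, breast cancer cell lines received 2.5 µl CellTiter-Blue reagent for 2 h at 37 °C. Fluorescence at 560/590 nm was scaled per plate so that vehicle was 100 and a positive kill control was 0. The value stands for normalised viability at a single listed concentration of the series.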

[2] = test system: CAL-85-1; assay: as above
How it was run: as §1

[3] = test system: BT-549; assay: as above
How it was run: as §1

[4] = test system: MDA-MB-468; assay: as above
How it was run: as §1

[5] = test system: Hs578T; assay: normalised viability (% of control), CellTiter-Blue; higher = more viable cells (about 100 = DMSO control)
Method: (§2)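 DSRT, CellTiter-Blue viability, 72 h incubation. Signal is normalised to DMSO and benzethonium chloride controls. Value is the normalised response at dose 3.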

[6] = test system: CAL-148; assay: as above
Method: as §2

[7] = test system: MDA-MB-453; assay: as above; remark: listed apart in the source
Method: as §2

[8] = test system: HCC1143; assay: as above
Method: as §2

[9] = test system: HCC1937; assay: as above
Method: as §2

[10] = test system: CAL-85-1; assay: as above; remark: listed apart in the source
Method: as §2

[11] = test system: BT-549; assay: as above; remark: listed apart in the source
Method: as §2

[12] = test system: CAL-120; assay: as above
Method: as §2

[13] = test system: MDA-MB-231; assay: as above
Method: as §2

[14] = test system: CAL-51; assay: as above
Method: as §2

[15] = test system: BT-474; assay: as above
Method: as §2

[16] = test system: HDQ-P1; assay: as above
Method: as §2

[17] = test system: MDA-MB-468; assay: as above; remark: listed apart in the source
Method: as §2

[18] = test system: SK-BR-3; assay: as above
Method: as §2

[19] = test system: MDA-MB-436; assay: as above
Method: as §2

[20] = test system: HCC1599; assay: as above
Method: as §2

[21] = test system: DU-4475; assay: as above
Method: as §2

[22] = test system: MFM-223; assay: as above
Method: as §2

[23] = test system: CAL-148; assay: drug sensitivity score (DSS), CellTiter-Glo (DSS (AUC-based score)); higher = stronger drug effect (viability inhibition or cytotoxicity); extreme values may be limits of the assay
How it was run: (§3)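 The drug sensitivity score was computed from the area under the fitted dose-response curve. Breast cancer cell lines in 20 µl suspension went into 384-well plates holding compound at 5 concentrations (10-fold steps over a 10,000-fold, compound-specific range) for 72 h of incubation. CellTox Green fluorescence (485/520 nm) was read before CellTiter-Glo luminescence, the latter after 10 min at room temperature, and each plate was normalised to 0.1 % DMSO and a positive kill control.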

[24] = test system: MDA-MB-453; assay: as above
How it was run: as §3

[25] = test system: CAL-51; assay: as above
How it was run: as §3

[26] = test system: HDQ-P1; assay: as above
How it was run: as §3

[27] = test system: SK-BR-3; assay: as above
How it was run: as §3

[28] = test system: MDA-MB-436; assay: as above
How it was run: as §3

[29] = test system: MCF-10A; assay: as above
How it was run: as §3

O=C(Nc1cccnc1)N1CCC(Cc2cccc(Oc3ccc(C(F)(F)F)cn3)c2)CC1 [PF-3845]
Conditions	normalised viability [%]
[1], 3 nM	112
[1], 30 nM	101
[1], 100 nM	101
[2], 3 nM	89.6
[2], 30 nM	89.5
[2], 100 nM	87.1
[3], 10 nM	93.3
[3], 1000 nM	86.9
[3], 10000 nM	48.6
[4], 10 nM	106
[4], 1000 nM	117
[4], 10000 nM	62.8
[5], 100 nM	122
[6], 10 nM	86.9
[7], 10 nM	105
[8], 100 nM	89.9
[9], 100 nM	107
[10], 10 nM	92.2
[11], 100 nM	111
[12], 100 nM	96.5
[13], 100 nM	128
[14], 10 nM	101
[15], 100 nM	116
[16], 10 nM	116
[17], 100 nM	102
[18], 100 nM	104
[19], 100 nM	113
[20], 100 nM	99.6
[21], 10 nM	104
[22], 100 nM	90.1

Conditions	drug sensitivity score
[23]	0
[24]	0
[25]	2.47
[26]	0
[27]	0
[28]	0
[29]	0

S=P(N1CC1)(N1CC1)N1CC1 [Thio-TEPA]
Conditions	normalised viability [%]
[1], 30 nM	111
[1], 300 nM	113
[1], 1000 nM	104
[2], 30 nM	99.9
[2], 300 nM	96.4
[2], 1000 nM	102
[3], 100 nM	95.2
[3], 10000 nM	119
[3], 100000 nM	116
[4], 100 nM	104
[4], 10000 nM	107
[4], 100000 nM	95.3
[5], 1000 nM	90.8
[6], 100 nM	102
[7], 100 nM	97.6
[8], 1000 nM	88.8
[9], 1000 nM	123
[10], 100 nM	102
[11], 1000 nM	105
[12], 1000 nM	86.7
[13], 1000 nM	98.2
[14], 100 nM	93.7
[15], 1000 nM	114
[16], 100 nM	120
[17], 1000 nM	103
[18], 1000 nM	91.1
[19], 1000 nM	118
[20], 1000 nM	87.4
[21], 100 nM	102
[22], 1000 nM	88.4

Conditions	drug sensitivity score
[23]	0
[24]	0
[25]	0
[26]	0
[27]	0
[28]	0
[29]	0

NC(=O)c1ccc(I)c([N+](=O)[O-])c1 [Iniparib]
Conditions	normalised viability [%]
[1], 3 nM	91.7
[1], 30 nM	94.7
[1], 100 nM	99.9
[2], 3 nM	91.5
[2], 30 nM	83.8
[2], 100 nM	89.5
[3], 10 nM	104
[3], 1000 nM	112
[3], 10000 nM	116
[4], 10 nM	97.9
[4], 1000 nM	107
[4], 10000 nM	91.6
[5], 100 nM	91.8
[6], 10 nM	96.3
[7], 10 nM	86.2
[8], 100 nM	86.8
[9], 100 nM	109
[10], 10 nM	87.6
[11], 100 nM	106
[12], 100 nM	105
[13], 100 nM	98.8
[14], 10 nM	93
[15], 100 nM	94.6
[16], 10 nM	108
[17], 100 nM	96.7
[18], 100 nM	72.4
[19], 100 nM	88.5
[20], 100 nM	103
[21], 10 nM	101
[22], 100 nM	92.4

Conditions	drug sensitivity score
[23]	0
[24]	0
[25]	0
[26]	0
[27]	0
[28]	3.5
[29]	0

CNC(=O)c1cc(Oc2ccc(NC(=O)Nc3ccc(Cl)c(C(F)(F)F)c3)c(F)c2)ccn1 [Regorafenib]
Conditions	normalised viability [%]
[1], 3 nM	102
[1], 30 nM	109
[1], 100 nM	101
[2], 3 nM	84.7
[2], 30 nM	89.1
[2], 100 nM	88
[3], 10 nM	98.8
[3], 1000 nM	102
[3], 10000 nM	37.4
[4], 10 nM	111
[4], 1000 nM	116
[4], 10000 nM	34.5
[5], 100 nM	98.4
[6], 10 nM	93.6
[7], 10 nM	110
[8], 100 nM	74.6
[9], 100 nM	90.4
[10], 10 nM	97.1
[11], 100 nM	112
[12], 100 nM	87.7
[13], 100 nM	75.3
[14], 10 nM	101
[15], 100 nM	98.3
[16], 10 nM	89.6
[17], 100 nM	107
[18], 100 nM	89.3
[19], 100 nM	121
[20], 100 nM	135
[21], 10 nM	104
[22], 100 nM	92.6

Conditions	drug sensitivity score
[23]	0.856
[24]	2.37
[25]	5.7
[26]	2.22
[27]	1.17
[28]	1.08
[29]	4.48
